Data as given in PMC5651866, “Halogenated Chrysins Inhibit Dengue and Zika Virus Infectivity” (Scientific Reports, 2017).

Experiments:
DENV2 NGC = assay: Primary screening: compounds added to DENV2 infected LLC/MK2 cells, plaque titration of culture supernatants; type: cell-based, Dengue virus
Experimental: In this study, we selected 8 flavonoid derivatives (Fig. 1) and tested their effect on DENV2 NGC in a LLC/MK2 cell-based system. Briefly, the compounds at final concentrations of 10 μM and 25 μM in DMSO were added to DENV2 infected LLC/MK2 cells and the effect on viral particle production was measured by plaque titration of the culture supernatants. […] We also tested cytotoxicity of FV13, FV14, and CH1 to verify the viral inhibition in LLC/MK2 cells (Table 2). The viabilities of FV13 treated cells were 81.00 ± 2.69% and 59.40 ± 2.42%, at 10, and 25 µM respectively, whereas the values for FV14 treated cells were 60.24 ± 3.31% and 60.86 ± 3.57%. We also examined Vero, THP-1, HepG2, and HEK-293 cell viabilities in the presence of selected compounds (Table 2).
LLC/MK2 cells were seeded at 5 × 10^4 cells into each well of 24-well plate and incubated overnight at 37 °C under 5% CO2. Cells were infected with DENV2 at the multiplicity of infection (M.O.I.) of 0.1, unless indicated otherwise, for 1 h with gentle rocking every 15 min. Cells were washed with phosphate buffer saline (PBS) and incubated with 1 ml of MEM medium supplemented with 1% FBS as previously described. The compounds were prepared in dimethylsulfoxide (DMSO) at the indicated concentrations before addition to viral infected cells. Supernatants were collected after 5 day incubation and analyzed by plaque titration. In primary screening, DMSO-treated cells served as the untreated control. Compounds that inhibited virus production by ≥90% were selected for further characterization.

[1] = Cytotoxicity study (CellTiter 96 AQueous One) in LLC/MK2 cells; type: cell-based; settings: rhesus monkey, LLC/MK2 cells
Experimental: (§1) The cytotoxicity of active compounds was tested on LLC-MK2, Vero, THP-1, HEK-293, HepG2 and C6/36 cell lines. Each cell line was seeded at 1 × 10^4 cells per well in 96-well plates and incubated overnight. The compounds were added at the indicated concentrations and the cells were incubated for 48 h, unless indicated otherwise. Cell viability was analyzed using CellTiter 96® AQueous One Solution Cell Proliferation Assay kit (Promega, Wisconsin-Madison, USA) according to manufacturer’s protocol. The plate was read at the A 450 in a VICTORTM × 3 microplate reader (PerkinElmer, Massachusetts, USA). Percent cell viability in compound-treated wells was calculated using reference DMSO-treated cells as a 100% cell viability control. The CC50 values of LLC/MK2 cells were calculated using nonlinear regression analysis. Results were reported as means and standard error of the means (SEM) of CC50 values of three independent experiments in which each drug concentration was tested in triplicate.

LLC/MK2 cells = assay: as above; type: cell-based; settings: LLC/MK2 cell viability at 120 h versus 48 h; in words
Experimental: as §1

[2] = Cytotoxicity study (CellTiter 96 AQueous One) in HEK-293 cells; type: cell-based; settings: human, HEK-293 cells, read-out: Cells viability (%, means ± SEM) HEK-293
Experimental: as §1

DENV2 (NGC) = assay: Antiviral efficacy (EC50) in virus infected LLC/MK2 cells, plaque assay; type: cell-based, Dengue virus
Experimental: (§2) Compound at various concentrations were added to virus infected LLC/MK2 cells and viral titers were accessed by plaque titration of supernatants as previously described.
(§3) LLC/MK2 cells were seeded at 5 × 10^4 cells into each well of 24-well plate and incubated overnight at 37 °C under 5% CO2. Cells were infected with DENV2 at the multiplicity of infection (M.O.I.) of 0.1, unless indicated otherwise, for 1 h with gentle rocking every 15 min. Cells were washed with phosphate buffer saline (PBS) and incubated with 1 ml of MEM medium supplemented with 1% FBS as previously described. The compounds were prepared in dimethylsulfoxide (DMSO) at the indicated concentrations before addition to viral infected cells. Supernatants were collected after 5 day incubation and analyzed by plaque titration[9].
(§4) Compounds were prepared in DMSO at 8–12 different concentrations and added to virus infected cells as previously described. Supernatants were collected and the EC50 values were calculated from nonlinear regression analysis.

DENV4 (c0036) = assay: as above; type: cell-based, Dengue virus
Experimental: as §2, §3, §4

[3] = Cytotoxicity study, summary statements over human-derived cell lines; type: cell-based; settings: HepG2 and HEK-293 cells, THP-1, HepG2, HEK-293, 10 and 25 µM, Table 2
Experimental: as §1

[4] = tested on: BHK-21/DENV2 replicon cells; assay: Replicon inhibition assay, RT-qPCR of replicon RNA; type: cell-based; settings: Dengue virus, DENV2, BHK-21, 72 h, read-out: inhibition of DENV2 replicon replication
Experimental: Next, we studied FV13 inhibition in a DENV2 replicon replication system to investigate whether translation and replication could be implicated as drug targets. BHK-21/DENV2 replicon cells[28] were treated with 5 and 10 µM FV13 and incubated for 72 h before measuring replication efficiency by quantifying replicon RNA. Ribavirin, a known dengue virus replication inhibitor[29], was used as a positive control.
After supernatant collection, the remaining cells in experimental plates were extracted for viral RNAs using TRIzol reagent (Invitrogen, California, USA) according to the manufacturer’s protocol. The samples were loaded into the Direct-zol™ RNA MiniPrep (Zymo research, California, USA) and quantified by Nanodrop spectrophotometry (Eppendorf, New York, USA). The RT-qPCR was performed with a Step-OnePlus Real-Time PCR System (Applied Biosystems, California, USA.) with 1 × Power SYBRGreen PCR Master Mix, 400 nM each of capsid primers[40] or 250 nM of NS1 primers[41] and 0.1 µg of total RNA. The reactions were then cycled at 48 °C 30 min and 95 °C 10 min, followed by 45 cycles of 95 °C for 20 s (denaturation), 55 °C for 30 s (annealing), 72 °C for 30 s (extension). Each sample was analyzed in triplicated and results were confirmed by two independent experiments.
BHK-21 cells expressing a DENV2 replicon (BHK-21/DENV2) were maintained in minimal essential medium (MEM) supplemented with 10% fetal bovine serum (FBS), and 0.3 mg/ml G418 (Bio Basic Canada, Ontario, Canada). The protocol was adapted from Boonyasuppayakorn et al., 2014 [28]. Briefly, cells (5 × 10^4/well) were seeded into 24-well plates and were incubated for 1 day at 37 °C in a humidified CO2 chamber followed by addition of the compounds in 1% DMSO at final concentrations of 5 µM and 10 µM. DMSO (1%) alone was used as the no-inhibitor control (0% inhibition) and the reference compound was ribavirin (TargetMol, Massachusetts, USA) at a final concentration of 5 µM or 10 µM. Cells were incubated at 37 °C for 72 h and lysed to quantify DENV2 replicons by RT-qPCR. Data were reported as percent inhibition compared with ribavirin, as a reference compound and DMSO, 0% inhibition. Results were confirmed by three independent experiments.

[5] = Stability of compound in DMSO at room temperature by 1H-NMR; type: physicochemical; settings: 4 mM in DMSO, sampled at 24, 72, 120 h
Experimental: The FV13 (6,8-dibromo-5,7-dihydroxyflavone) was tested for the stability by dissolving in DMSO at a concentration of 4 mM FV13 solution. The solution was incubated at room temperature and sampled out at 24, 72, and 120 hours for ^1H-NMR analysis.

[6] = Dengue virus, DENV2, LLC-MK2, read-out: DENV2 inhibition (%, means ± SEM)

Compound: O=c1cc(-c2ccccc2)oc2c(Br)c(O)c(Br)c(O)c12 [FV13, 6,8-dibromo-5,7-dihydroxyflavone]
- inhibition of virus production (DENV2 NGC; 10 μM and 25 μM, summary of Table 1): > 99%
- inhibition at 10 µM (DENV2 NGC; [6]): 99.45 ± 0.48%
- inhibition at 25 µM (DENV2 NGC; [6]): 99.65 ± 0.41%
- viability at 48 h, 10 µM ([1]; 10 μM, 48 h, read-out: Cells viability (%, means ± SEM) LLC/MK2): 81 ± 2.69%
- viability at 48 h, 25 µM ([1]; 25 μM, 48 h, read-out: Cells viability (%, means ± SEM) LLC/MK2): 59.4 ± 2.42%
- CC50 at 48 h ([1]; 48 h incubation, read-out: CC50 (cytotoxic concentration)): 44300 ± 2900 nM
- effect of long term incubation on cytotoxicity (LLC/MK2 cells): similarly non-toxic at both 48 and 120 h
- viability at 48 h, 10 µM ([2]; 10 μM): 98.1 ± 0.72%
- viability at 48 h, 25 µM ([2]; 25 μM): 89.4 ± 5.6%
- S.I. Selectivity index (CC50/EC50) (DENV2 (NGC); DENV2 (NGC), CC50 in LLC/MK2): 30.43
- EC50 (DENV2 (NGC); Dengue virus, DENV2, LLC-MK2): 1470 ± 860 nM
- S.I. Selectivity index (CC50/EC50) (DENV4 (c0036); DENV4 (c0036), CC50 in LLC/MK2): 25.12
- EC50 (DENV4 (c0036); Dengue virus, DENV4, LLC-MK2): 1780 ± 720 nM
- viability at 48 h [3]: > 80%
- inhibition at 5 µM [4]: 83.4 ± 2.04%
- inhibition at 10 µM [4]: 82.7 ± 4.01%
- stability (no decomposition by NMR) [5]: at least 120 h
